Article PMC9967051, “(S)-N-Benzyl-1-phenyl-3,4-dihydroisoqunoline-2(1H)-carboxamide Derivatives, Multi-Target Inhibitors of Monoamine Oxidase and Cholinesterase: Design, Synthesis, and Biological Activity” (Molecules, 2023)

Key:
MAO = MAO activity assay (total MAO); type: biochemical; conditions: for Inhibition Rate for MAO: compounds concentration 100 µM
Experimental: The enzyme activity analysis was performed according to the procedure reported by Matsumoto et al. with slight modifications. All materials used in the enzymatic assays were purchased from Aladdin Reagent Chemicals. […] The concentrations of the synthesized compounds altered from 0.001 µM to 100 µM for the MAO-A and -B enzyme activity inhibition. […] The enzymatic reactions were caused by the addition of MAO-A (40 µg/mL) or MAO-B (20 µg/mL), and cultured at 37 °C for 30 min. The enzyme reactions were stopped through the addition of 2N NaOH for 75 µL. […] The inhibitory effect of enzyme activity was calculated as a percentage of product formation compared to the corresponding control with no inhibitor. A control was established to determine the interference of the tested compounds to the fluorescence assay, and the enzyme or substrate was added after the reaction stopped.

BChE = BChE (Homo sapiens, UniProt P06276); assay: biochemical; conditions: compounds concentration 100 µM; read-out: Inhibition Rate BChE
Experimental: Inhibition of AChE and BChE was measured through the spectrophotometric method developed by Ellman’s method with slight modifications. The analysis protocol contained 96-well plates (100 µL per well). Each well involved 20 µL of assay buffer solution, 20 µL of the test sample, and 40 µL of 0.2 U/mL of AChE or BChE. The mixture was incubated for 10 min at 25 °C followed by the addition of substrate (20 µL). For AChE inhibition assay, acetylthiocholine iodide (ATCI, 0.001 mol/L), while for BChE assay, butyrylthiocholine chloride (BTCCl, 0.001 mol/L) was added to it. The mixture was incubated at 37 °C for 15 min. Ellman reagent (5,5′-dithio-bis(2-nitrobenzoic acid), DTNB, 0.001 mol/L) was added. […] The blank analysis was performed. All the analyses were performed in triplicate. Inhibition rate of experimental sample or positive control group (%) = [(control group-blank background)-(experimental sample or positive control group -sample background)]/(control-blank background) × 100%.

Chain of BChE (P06276 29-602): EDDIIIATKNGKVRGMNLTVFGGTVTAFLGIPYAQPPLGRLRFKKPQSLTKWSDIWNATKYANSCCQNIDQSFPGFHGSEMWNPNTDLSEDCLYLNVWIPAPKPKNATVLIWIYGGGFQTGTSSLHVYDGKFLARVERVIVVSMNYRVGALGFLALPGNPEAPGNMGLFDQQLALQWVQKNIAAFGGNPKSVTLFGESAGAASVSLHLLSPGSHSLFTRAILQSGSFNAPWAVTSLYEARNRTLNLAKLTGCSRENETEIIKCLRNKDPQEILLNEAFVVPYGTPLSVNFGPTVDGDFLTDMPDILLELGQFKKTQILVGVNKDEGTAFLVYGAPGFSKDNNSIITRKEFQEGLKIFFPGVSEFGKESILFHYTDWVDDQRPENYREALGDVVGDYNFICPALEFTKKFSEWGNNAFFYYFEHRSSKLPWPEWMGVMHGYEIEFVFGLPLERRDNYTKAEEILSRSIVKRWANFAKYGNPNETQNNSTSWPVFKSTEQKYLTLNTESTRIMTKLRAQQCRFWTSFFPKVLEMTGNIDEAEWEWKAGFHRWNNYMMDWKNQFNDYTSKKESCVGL

## O=C(NCc1ccc(Cl)cc1Cl)N1CCc2ccccc2[C@@H]1c1ccccc1 [2x, (S)-N-(2,4-dichlorobenzyl)-1-phenyl-3,4-dihydroisoquinoline-2(1H)-carboxamide]
MAO
  Inhibition Rate for MAO: 44.7%

## O=C(NCc1ccccc1Cl)N1CCc2ccccc2[C@@H]1c1ccccc1 [2e, (S)-N-(o-chlorobenzyl)-1-phenyl-3,4-dihydroisoquinoline-2(1H)-carboxamide]
MAO
  Inhibition Rate for MAO: 41.4%

## O=C(NCc1ccccc1C(F)(F)F)N1CCc2ccccc2C1c1ccccc1 (stereo in doubt) [2k, (S)-N-(o-(trifluoromethyl)benzyl)-1-phenyl-3,4-dihydroisoquinoline-2(1H)-carboxa-mide]
MAO
  Inhibition Rate for MAO: 33.0%

## COc1ccc(CNC(=O)N2CCc3ccccc3[C@@H]2c2ccccc2)cc1 [2u, (S)-N-(p-methoxybenzyl)-1-phenyl-3,4-dihydroisoquinoline-2(1H)-carboxamide]
BChE
  inhibition at 100 µM: 40.7%

## O=C(NCc1ccc(F)cc1F)N1CCc2ccccc2[C@@H]1c1ccccc1 [2aa, (S)-N-(2,4-difluorobenzyl)-1-phenyl-3,4-dihydroisoquinoline-2(1H)-carboxamide]
MAO
  Inhibition Rate for MAO: 32.1%

## C#CCN[C@@H]1CCc2ccccc21 [Rasagiline, reference compound]
MAO
  IC50: 338 nM
  Inhibition Rate for MAO: 91.75%

## O=C(NCc1ccc(C(F)(F)F)cc1)N1CCc2ccccc2C1c1ccccc1 (stereo in doubt) [2m, (S)-N-(p-(trifluoromethyl)benzyl)-1-phenyl-3,4-dihydroisoquinoline-2(1H)-carboxa-mide]
MAO
  Inhibition Rate for MAO: 35.8%

## O=C(NCc1ccc(OC(F)(F)F)cc1)N1CCc2ccccc2C1c1ccccc1 (stereo in doubt) [2o, (S)-N-(p-(trifluoromethoxy)benzyl)-1-phenyl-3,4-dihydroisoquinoline-2(1H)-carbox-amide]
MAO
  Inhibition Rate for MAO: 31.1%

## O=C(NCc1cccc(Cl)c1)N1CCc2ccccc2[C@@H]1c1ccccc1 [2f, (S)-N-(m-chlorobenzyl)-1-phenyl-3,4-dihydroisoquinoline-2(1H)-carboxamide]
BChE
  inhibition at 100 µM: 3.4%

## O=C(NCc1ccccc1OC(F)(F)F)N1CCc2ccccc2C1c1ccccc1 (stereo in doubt) [2n, (S)-N-(o-(trifluoromethoxy)benzyl)-1-phenyl-3,4-dihydroisoquinoline-2(1H)-carbox-amide]
MAO
  Inhibition Rate for MAO: 33.0%

## COc1ccccc1CNC(=O)N1CCc2ccccc2[C@@H]1c1ccccc1 [2s, (S)-N-(o-methoxybenzyl)-1-phenyl-3,4-dihydroisoquinoline-2(1H)-carboxamid]
BChE
  inhibition at 100 µM: 39.6%

## O=C(NCc1ccccc1F)N1CCc2ccccc2[C@@H]1c1ccccc1 [2b, (S)-N-(o-fluorobenzyl)-1-phenyl-3,4-dihydroisoquinoline-2(1H)-carboxamide]
BChE
  inhibition at 100 µM: 49%

## O=C(NCc1c(Cl)cccc1Cl)N1CCc2ccccc2[C@@H]1c1ccccc1 [2y, (S)-N-(2,6-dichlorobenzyl)-1-phenyl-3,4-dihydroisoquinoline-2(1H)-carboxamide]
MAO
  Inhibition Rate for MAO: 37.7%

## O=C(NCc1ccc(Cl)cc1)N1CCc2ccccc2[C@@H]1c1ccccc1 [2g, (S)-N-(p-chlorobenzyl)-1-phenyl-3,4-dihydroisoquinoline-2(1H)-carboxamide]
MAO
  Inhibition Rate for MAO: 21.2%

## O=C(NCc1ccc(Cl)c(Cl)c1)N1CCc2ccccc2[C@@H]1c1ccccc1 [2z, (S)-N-(3,4-dichlorobenzyl)-1-phenyl-3,4-dihydroisoquinoline-2(1H)-carboxamide]
MAO
  Inhibition Rate for MAO: 7.40%
BChE
  inhibition at 100 µM: 12.1%

## O=C(NCc1c(F)cccc1F)N1CCc2ccccc2[C@@H]1c1ccccc1 [2ab, (S)-N-(2,6-difluorobenzyl)-1-phenyl-3,4-dihydroisoquinoline-2(1H)-carboxamide]
MAO
  Inhibition Rate for MAO: 33.0%
BChE
  inhibition at 100 µM: 24.9%

## Cc1cccc(CNC(=O)N2CCc3ccccc3[C@@H]2c2ccccc2)c1 [2q, (S)-N-(m-methylbenzyl)-1-phenyl-3,4-dihydroisoquinoline-2(1H)-carboxamide]
BChE
  inhibition at 100 µM: 8.7%

## O=C(NCc1cccc(C(F)(F)F)c1)N1CCc2ccccc2C1c1ccccc1 (stereo in doubt) [2l, (S)-N-(m-(trifluoromethyl)benzyl)-1-phenyl-3,4-dihydroisoquinoline-2(1H)-carbox-amide]
BChE
  inhibition at 100 µM: 49.1%

## N#Cc1ccc(CNC(=O)N2CCc3ccccc3[C@@H]2c2ccccc2)cc1 [2ac, (S)-N-(p-cyanobenzyl)-1-phenyl-3,4-dihydroisoquinoline-2(1H)-carboxamide]
BChE
  inhibition at 100 µM: 17.7%

## COc1ccc(CNC(=O)N2CCc3ccccc3[C@@H]2c2ccccc2)cc1OC [2w, (S)-N-(3,4-dimethoxybenzyl)-1-phenyl-3,4-dihydroisoquinoline-2(1H)-carboxamide]
BChE
  inhibition at 100 µM: 9.4%
